Measurements from patent publication US8652785B2, “Method of screening a modulator of endothelial NO synthase comprising the use of heme binding protein 1” (Sanofi, priority 2008, dated 2014).

What was measured:
eNOS promoter [1] = assay: eNOS-transcription test (eNOS-promoter luciferase reporter cell line EA.csr03); assay type: cell-based; conditions: Homo sapiens; EA.csr03 cells, nonlinear regression; read-out: EC50 in the eNOS-transcription test
Description: The EA.csr03 cells are cells of a stable eNOS-promoter luciferase cell line. It was obtained by transfection of EA.hy926 cells with a firefly luciferase reporter construct, with a 3.5 kb fragment of the eNOS-promoter added. Cultivation of these cells was carried out with IMDM with GlutaMAX™ I supplemented with 100 U/ml penicillin, 100 μg/ml streptomycin, 10% FCS and 0.4 mg/ml geneticin as selection antibiotic. The EA.hy926 cells are a stable human cell line, which was obtained by fusion of HUVEC with the human […] cell line A549. This cell line is characterized by expression of specific endothelial cell markers, e.g. the “van-Willebrand factor”. The cells used are an original culture of Cora Jean Edgell of passage 32. The cells were cultivated in IMDM with GlutaMAX™ I supplemented with 100 U/ml penicillin, 100 μg/ml streptomycin, HAT Hybri-Max™ medium additive (hypoxanthine, aminopterin and thymidine) and Biotect protective medium.
For transcription test for eNOS promoter activation, 20 000 cells per well of the reporter cell line EA.csr03 were sown in a white 96-well cell culture plate. After 24 hours, various dilutions of the substance in cell culture medium were prepared starting from DMSO stock solutions and were preincubated for 10 min at 37° C. on a water bath. Then these incubation media (100 μl/well) were added to the cells. After incubation for 18 hours, the cells were washed twice with DPBS (100 μl/well) and luciferase lysis buffer (50 μl/well) was added. After 10 min, the solubilized luciferase-substrate luciferin (100 μl/well) was added to the cell lysates. During the luciferase-catalyzed oxidation of luciferin to oxyluciferin there is release of chemiluminescence. […] The light units released were measured in the Genios microplate reader from Tecan Deutschland (Crailsheim, Germany).

eNOS promoter [2] = assay: eNOS-transcription test after siRNA transfection of EA.csr03 cells; assay type: cell-based, human
Description: For liposomal transfection of siRNA in endothelial cells, EA.hy926 or EA.csr03 cells were sown with a density of 50 000 cells per well in a volume of 100 μl growth medium in 96-well plates. After incubation for 24 h in an incubator, the cells were washed with sterile DPBS and were covered in each case with 100 μl/well of serum-free and antibiotic-free special medium Opti-MEM® I. Then the siRNAs (see below) used were preincubated with Lipofectamine™ 2000 in accordance with the manufacturer's instructions and finally 50 μl/well of the transfection mixture was added to the cells. Unless stated otherwise, the siRNAs were used at final concentrations of 100 nM. Per well, after previous optimization, 0.8 μl of Lipofectamine™ 2000 was used for transfection of the EA.hy926 cells, and 0.5 μl for the EA.csr03 cells. After the cells had been incubated in an incubator for 6 hours, the transfection medium was replaced with normal growth medium and the next experimental steps were carried out in the time frame of 24-72 hours after transfection. Primary HUVECs were sown at 100 000 cells per well in Collagen I-coated 6-well plates and were cultivated in normal growth medium up to 60-70% confluence. Prior to transfection, the cells were washed with sterile DPBS and covered in each case with 800 μl/well of serum-free and antibiotic-free special medium Opti-MEM® I. 6 μl Lipofectin® and siRNA at a final concentration of 100 nM were used per well. […]
The survey of the efficiencies of different siRNAs to the target proteins were tested. The respective residual mRNA was determined by quantitative RT-PCR, 24 hours after transfection of human endothelial cells (EA.hy926/EA.csr03). […] After cell lysis, the luciferase activity and the total cellular protein content were determined.
For transcription test for eNOS promoter activation, 20 000 cells per well of the reporter cell line EA.csr03 were sown in a white 96-well cell culture plate. […] The light units released were measured in the Genios microplate reader from Tecan Deutschland (Crailsheim, Germany). […]

HEBP1_predicted mRNA = assay: HEBP1_predicted expression in cardiac tissue of rats with chronic heart failure after myocardial infarction; assay type: in vivo; conditions: 10 mg/kg/day for 9 weeks, versus placebo, mRNA relative to GAPDH
Description: Rats were divided in three groups. One group was sham-operated (group 1), whereas in groups 2 and 3 chronic heart failure was induced by myocardial infarction. Only, the latter group was treated with AVE3085 (10 mg/(kg day)) for 9 weeks. Thereafter, mRNA expression (HEBP1 in comparison to GAPDH) was determined in heart tissue. Means±SD of 7 experiments are shown, * p<0.05 vs. sham operated.
In another context, an animal study was conducted, in which rats developed chronic heart failure after an induced myocardial infarction. From available RNA samples from cardiac tissue it was possible to determine the expression of HEBP1_predicted at the mRNA level. […]
Isolation of RNA from the cell types used was carried out using the RNeasy® mini-isolation method. […] The concentration and purity of the prepared RNA were determined using a NanoDrop® ND-1000 spectrophotometer (NanoDrop Technologies Inc., Wilmington, USA). In this, from a total volume of 2 μl, the absorption of the samples was measured at a wavelength of λ=260 nm (A260) for nucleic acids. Conversion of the measured absorption to the concentration of the RNA solution was carried out by means of the extinction coefficient of 40 ng×cm^−1×μl^−1 on the basis of the Lambert-Beer law. […] The RNA obtained was then diluted in the ratio 1:5 and either used immediately in a quantitative RT-PCR or stored at −80° C. for future use. […]

O=C(NC1Cc2ccccc2C1)c1ccc2c(c1)OC(F)(F)O2 [AVE3085]
EC50 (eNOS promoter [1]): 0.4 µM
induction of the eNOS promoter versus DMSO-control, HEBP1 switched off using siHEBP1 25 (eNOS promoter [2]; AVE3085 5 μM, 18 h, siHEBP1 25): 1.6 factor
induction of the eNOS promoter versus DMSO-control, siLV2-treated control cells (eNOS promoter [2]; AVE3085 5 μM, 18 h, siLV2-control): 2.4 factor
reduction of eNOS-promoter activation by AVE3085 after switching-off of HEBP1 by siRNA versus siLV2-control (eNOS promoter [2]; HEBP1 siRNA): 64%
influence of treatment on expression of HEBP1_predicted in heart (HEBP1_predicted mRNA): did not show any influence at all
